Experimental data published in patent publication US20240002809A1, “FRACTAL CUES SUPPORT HIERARCHICAL MATURATION OF CELLS VIA CURVATURE-INDUCED PATTERNING” (The Governing Council of the University of Toronto, priority 2022, published 2024).

Legend:
Type in all cases: cell-based
[1] = test system: Mosaic cells cultured on HF scaffolds; assay: Mosaic assay Adriamycin dose test (fractal dimension of cell morphology); conditions: 0.5 and 1 μg/mL ADR; only with Mosaic cells cultured on HF scaffolds (not NT); FIG. 6e, 6f
Description: To develop the mosaic assay, populations of fluorescent cells were mixed with optically silent cells and monitored for over 14 days in the mouse cell line, and over 5 days in the human cell line. For long-term live cell labeling, adenovirus transduction of eGFP (Vector Biolabs, #1060) was utilized at an MOI of 1000 in the mouse podocyte cell line, and MOI of 10 in the human podocyte cell line. Cells were transduced one day after seeding and attachment, when cultures were 75% confluent. Virus handling protocols were used, including wearing additional disposable PPE (lab coat, shoe covers, elbow-length and double gloves, and face mask). […]
The next day, virus was removed and puromycin was applied at 8 μg/mL to select fluorescent cells for 48 hours. […] The mosaic assay was assessed using the Zeiss […] super resolution confocal microscope to allow sufficient resolution to see interdigitating foot processes. […]
Images of single fluorescent cells from the mosaic assay (used in topography, model virus, Adriamycin, and patient serum experiments) were first processed using Zeiss's ZenDesk software to facilitate delineation of whole single cell morphology as follows: the FITC channel was adjusted by setting gamma to 2.5 and adjusting the white point to 30. […] The sequence was recorded as a macro to facilitate automation and thus performed blindly and equivalently to all sample images. […]

[2] = test system: human podocyte cell line on HF substrates; assay: Lactate dehydrogenase (LDH) release assay of Mosaic assay cells; conditions: dose of 1 μM, FIG. 13d
Procedure: YAP Inhibition Study: HF and NT scaffolds were prepared as described above. Mosaic human podocytes were seeded on top of the scaffolds at a concentration of 50,000 cells/cm^2 (100,000 cells per scaffold). […] Samples were fixed on day 5. Media was collected and lactate dehydrogenase assay (LDH) assay (Cayman) was performed according to manufacturer's protocol to validate cell viability. Mosaic assay imaging and analysis were performed as described above.

[3] = test system: human podocyte cell line on HF substrates; assay: YAP inhibition study, Mosaic assay fractal dimension of whole cell morphology; conditions: dose of 1 μM, in comparison to the inhibitor-free control, FIG. 13e
Procedure: Mosaic Assay: Mosaic Podo/Tert256 human podocytes (a mixture of GFP-labelled cells and non-fluorescent cells at a ratio of 1:11) were cultured and seeded in the same way as regular human podocytes as described above. At the study endpoint, cells were fixed with PFA, stained with rhodamine-wheat germ agglutinin (WGA), and mounted with DAPI-containing mounting media as described above. Samples were imaged via confocal microscopy using a Zeiss LSM 880 Super Resolution Confocal microscope to allow sufficient resolution to visualize interdigitated morphology. Z-stacked images spanning the entire section with visible signals were taken for each sample. The images were first processed using Zeiss's ZenDesk software to increase the contrast of GFP-positive cells' morphology as follows: the FITC channel was adjusted by setting gamma to 2.5 and adjusting the white point to 30. The DAPI channel's white point was adjusted to 80. In Photoshop or Fiji, the magic wand tool was used to select single fluorescent cells, create binary masks, and export binary images of single cells. Single cells were verified by overlaying nuclei with the cell images to ensure each cell only contained one nucleus. Binary images were then outlined in Fiji, and fractal analysis was performed using the FracLac plugin where the standard box-counting algorithm was used, with the background locked to white. […]

Compound	injury response: fractal dimension of cell morphology [1]	cell viability (LDH release) [2]	Df of podocyte morphology [3]
COc1cccc2c1C(=O)c1c(O)c3c(c(O)c1C2=O)C[C@@](O)(C(=O)CO)C[C@@H]3O[C@H]1C[C@H](N)[C@H](O)[C@H](C)O1 [Adriamycin, doxorubicin]	reduced fractal dimension of cell morphology	–	–
Verteporfin	–	did not show any significant deterioration of cell viability	decreased significantly
